What was measured:
[1] = test system: human breast cancer cell strain MDA-MB435; assay: In vitro SRB tumor cell growth inhibition (GI50); assay type: cell-based; conditions: MDA-MB435 cells
Protocol: (§1) Human colon cancer cell strains (Colo205 and HCT-116), human breast cancer cell strains (MCF-7 and MDA-MB435), human lung cancer cell strains (A549, 95D and NCI460), human ovarian cancer cell strains (OVCAR-5, OVCAR-8, HO8910 and SKOV-3), human leukemia (HL-60 and K562), human prostate cancer (DU145 and BXPC-3), human uterine cancer (Hela), human pancreatic cancer (PANC-1), human hepatoma (HepG 2) were all obtained from ATCC. Colo205, HL-60, K562 cells were cultured in RPMI 1640 containing 2 mM/L glutamine, 10% FBS, 1.0 mM sodium pyruvate. HCT-116, MCF-7, A549, 95D, HO8910, NCI460, OVCAR-5, OVCAR-8, DU145, BXPC-3, Hela, PANC-1, HepG2 cells were cultured in DMEM containing 2 mM/L glutamine, 10% FBS. MDA-MB435 cells were cultured in L-15 containing 2 mM/L glutamine, 10% FBS. SKOV-3 cells were cultured in McCoy's containing 2 mM/L glutamine, 10% FBS. Colo205, HL-60 and K562 cells were seeded in 96-well plates, 150 μL/well and 8000 cells/well, and the 96-well plates were pre-incubated in an incubator at 37° C. with 5% CO2, 100% relative humidity for 24 hours. HCT-116, MCF-7, NCI460, OVCAR-5, OVCAR-8, Hela, HepG 2 and MDA-MB435 cells were seeded in 96-well plates, 5000 cells/well; A549, 95D, HO8910, DU145, BXPC-3, PANC-1 and SKOV-3 cells were seeded in 96-well plates, 10000 cells/well, and the 96-well plates were pre-incubated in an incubator at 37° C. with 5% CO2, 100% relative humidity for 24 hours, to allow the cells to adhere.
(§2) 50 μL of pre-cooled 50% (mass/volume) TCA was added into the time zero control wells for each cell strain to fix the cells. To other wells, 50 μL of various concentrations of compounds were added, and maintained for 48 h, wherein each drug concentration was in triplicate, and there were blank control wells (cell culture medium without cells), drug-free control wells (with no drugs but the same volume of complete medium) and positive drug BSI-201 control wells, and the plates were incubated in an incubator at 37° C. with 5% CO2, full humidity (100% relative humidity) for 48 hours
(§3) 50 μL pre-cooled 50% (mass/volume) TCA was added onto the surface of the culture medium to fix the cells, which was then placed at 4° C. for 1 h. The supernatant was removed and each well was washed with deionized water for 5 times to remove TCA, serum proteins, etc. After dried in the air, about 100 μL enough amount of 0.4% SRB (formulated with 1% acetic acid) was added into each well, and was placed at room temperature for 20 to 30 min. Liquid in each well was discarded and each well was rapidly washed with 1% acetic acid for five times, to remove unbound dye until the unbound dye was completely rinsed clean. After dried in the air until the moisture was invisible, each well was added 200 μL Tris base to dissolve, shaken on a plate oscillator for 5 min or mixed by beating up and down with a pipette tip, and then measured on the multi-function instruction (M5 Detection System, MD Group Ltd.) with a detection wavelength of 515 nm, zero adjusted with 690 nm blank control.
(§4) The dose-response curve was plotted by XL-fit to determine the GI50 value.

[2] = test system: 18 tumor cell strains; assay: In vitro efficacy screening, summary over the tumor cell strains; assay type: cell-based, human; conditions: in vitro screening; for inhibitory effects on tumor cell proliferation (in words): BSI-201 as positive drug
Protocol: as §1, §2, §3, §4

[3] = test system: human breast cancer cell strain MCF-7; assay: In vitro SRB tumor cell growth inhibition (GI50); assay type: cell-based; conditions: MCF-7 cells
Protocol: as §1, §2, §3, §4

[4] = test system: human colon cancer cell strain HCT-116; assay: In vitro SRB tumor cell growth inhibition (GI50); assay type: cell-based; conditions: HCT-116 cells
Protocol: as §1, §2, §3, §4

[5] = test system: human lung cancer cell strain NCI-460; assay: In vitro SRB tumor cell growth inhibition (GI50); assay type: cell-based; conditions: NCI-460 cells
Protocol: as §1, §2, §3, §4

[6] = test system: human leukemia HL-60; assay: In vitro SRB tumor cell growth inhibition (GI50); assay type: cell-based; conditions: Homo sapiens, HL-60, 48 h, HL-60 cells
Protocol: as §1, §2, §3, §4

[7] = test system: human prostate cancer DU145; assay: In vitro SRB tumor cell growth inhibition (GI50); assay type: cell-based; conditions: Homo sapiens, DU-145, 48 h, DU145 cells
Protocol: as §1, §2, §3, §4

[8] = test system: human ovarian cancer cell strain OVCAR-8; assay: In vitro SRB tumor cell growth inhibition (GI50); assay type: cell-based; conditions: OVCAR-8 cells
Protocol: as §1, §2, §3, §4

[9] = test system: human lung cancer cell strain 95D; assay: In vitro SRB tumor cell growth inhibition (GI50); assay type: cell-based; conditions: 48 h, 95D cells
Protocol: as §1, §2, §3, §4

GI50 ([3]; Homo sapiens, MCF7, 48 h) [µM] | GI50 ([4]; Homo sapiens, HCT-116, 48 h) [µM] | GI50 [6] [µM] | Structure (SMILES) | efficacy in inhibition of tumor cell proliferation, graded in words against I-1 [2] | inhibitory effects on tumor cell proliferation (in words) [2] | GI50 ([5]; Homo sapiens, NCI-460, 48 h) [µM] | also measured
 |  |  | C#Cc1ccc(C(=O)NC(=O)OCCC)cc1[N+](=O)[O-] [Compound I-4, N-propoxycarbonyl-4-ethynyl-3-nitrobenzamide] | good effects on inhibition of tumor cell proliferation | have inhibitory effects on tumor cell proliferation |  | GI50 ([1]; Homo sapiens, MDA-MB-435, 48 h): 12.6 µM
 | 13 |  | N#Cc1ccc(C(N)=O)cc1[N+](=O)[O-] [Compound I-8, 4-cyano-3-nitrobenzamide] | good effects on inhibition of tumor cell proliferation | have inhibitory effects on tumor cell proliferation |  | GI50 ([1]; Homo sapiens, MDA-MB-435, 48 h): 32.2 µM
6.7 | 22.5 | 9.71 | C#Cc1ccc(C(=O)NC)cc1[N+](=O)[O-] [Compound I-9, N-methyl-4-ethynyl-3-nitrobenzamide] | good effects on inhibition of tumor cell proliferation | have inhibitory effects on tumor cell proliferation | 11.5 | 
12.3 | 18.3 | 3.78 | C#Cc1ccc(C(=O)N(C)C)cc1[N+](=O)[O-] [Compound I-10, N,N-dimethyl-4-ethynyl-3-nitrobenzamide] | good effects on inhibition of tumor cell proliferation | have inhibitory effects on tumor cell proliferation | 24.1 | 
10.7 | 12.1 | 2.35 | C#Cc1ccc(C(=O)NC(C)=O)cc1[N+](=O)[O-] [Compound I-11, N-acetyl-4-ethynyl-3-nitrobenzamide] | good effects on inhibition of tumor cell proliferation | have inhibitory effects on tumor cell proliferation | 13.4 | 
 |  | 34.6 | CC#Cc1ccc(C(N)=O)cc1[N+](=O)[O-] [Compound I-12, 4-(1-propynyl)-3-nitrobenzamide] | good effects on inhibition of tumor cell proliferation | have inhibitory effects on tumor cell proliferation |  | 
25.3 |  |  | C#Cc1ccc(C(=O)NC(=O)c2ccccc2)cc1[N+](=O)[O-] [Compound I-13, N-benzoyl-4-ethynyl-3-nitrobenzamide] | good effects on inhibition of tumor cell proliferation | have inhibitory effects on tumor cell proliferation |  | GI50 ([1]; Homo sapiens, MDA-MB-435, 48 h): 6.24 µM
9.92 | 12 |  | C#Cc1ccc(C(=O)N(CCC)CCC)cc1[N+](=O)[O-] [Compound I-15, N,N-dipropyl-4-ethynyl-3-nitrobenzamide] | slightly lower than that of I-1 | have inhibitory effects on tumor cell proliferation | 17 | GI50 [7]: 2.37 µM
8.21 | 12.9 | 1.27 | C#Cc1ccc(C(=O)N(CCCC)CCCC)cc1[N+](=O)[O-] [Compound I-16, N,N-dibutyl-4-ethynyl-3-nitrobenzamide] | good effects on inhibition of tumor cell proliferation | have inhibitory effects on tumor cell proliferation | 15.5 | 
6.29 | 9.45 | 4.86 | C#Cc1ccc(C(=O)NCCC)cc1[N+](=O)[O-] [Compound I-18, N-propyl-4-ethynyl-3-nitrobenzamide] | good effects on inhibition of tumor cell proliferation | have inhibitory effects on tumor cell proliferation | 7.09 | 
9.59 | 9.01 | 5.15 | C#Cc1ccc(C(=O)NCCCC)cc1[N+](=O)[O-] [Compound I-19, N-butyl-4-ethynyl-3-nitrobenzamide] | good effects on inhibition of tumor cell proliferation | have inhibitory effects on tumor cell proliferation | 10.1 | 
13.4 |  |  | C#Cc1ccc(C(=O)N2CCOCC2)cc1[N+](=O)[O-] [Compound I-22, (4-ethynyl-3-nitrophenyl)(morpholin-4-yl)ketone] |  | have inhibitory effects on tumor cell proliferation |  | GI50 ([1]; Homo sapiens, MDA-MB-435, 48 h): 6.53 µM
9.5 | 10.9 |  | C#Cc1ccc(C(=O)N2CCC2)cc1[N+](=O)[O-] [Compound I-25] |  |  | 27.7 | GI50 ([8]; Homo sapiens, OVCAR-8, 48 h): 14.4 µM
31.6 |  |  | CNC(=O)c1ccc(C#N)c([N+](=O)[O-])c1 [Compound I-27, N-methyl-4-cyano-3-nitrobenzamide] | good effects on inhibition of tumor cell proliferation | have inhibitory effects on tumor cell proliferation |  | GI50 ([1]; Homo sapiens, MDA-MB-435, 48 h): 29.3 µM
9.78 |  |  | C#Cc1ccc(C(N)=O)cc1N=O [Compound I-28, 4-ethynyl-3-nitrosobenzamide] | good effects on inhibition of tumor cell proliferation | have inhibitory effects on tumor cell proliferation |  | GI50 ([9]; Homo sapiens, 95-D): 18.1 µM; GI50 ([8]; Homo sapiens, OVCAR-8, 48 h): 17.2 µM
 |  |  | C#Cc1ccc(C(=O)N2CCN(C)CC2)cc1[N+](=O)[O-].Cl [Compound I-29, (4-ethynyl-3-nitrophenyl)(4-methylpiperazin-1-yl)ketone hydrochloride] | slightly lower than that of I-1 | have inhibitory effects on tumor cell proliferation |  | GI50 ([3]; 48 h, hydrochloride): 11.8 µM; GI50 ([1]; 48 h, hydrochloride): 8.44 µM; GI50 ([4]; 48 h, hydrochloride): 14.3 µM; GI50 ([9]; hydrochloride): 15.8 µM; GI50 ([5]; 48 h, hydrochloride): 28.2 µM; GI50 ([8]; 48 h, hydrochloride): 29.3 µM

Structure (SMILES) | GI50 ([3]; Homo sapiens, MCF7, 48 h) [µM] | GI50 ([4]; Homo sapiens, HCT-116, 48 h) [µM] | GI50 [6] [µM] | efficacy in inhibition of tumor cell proliferation, graded in words against I-1 [2] | inhibitory effects on tumor cell proliferation (in words) [2] | GI50 ([5]; Homo sapiens, NCI-460, 48 h) [µM] | also measured
C#Cc1ccc(C(=O)NC(=O)OCCCC)cc1[N+](=O)[O-] [Compound I-5, N-butoxycarbonyl-4-ethynyl-3-nitrobenzamide] | 10.1 | 17.9 |  | good effects on inhibition of tumor cell proliferation | have inhibitory effects on tumor cell proliferation | 20.1 | 

Source: patent US8946478B2, “Benzamide derivative with anticancer activity and preparation method and use thereof” (Zhejiang Hisun Pharmaceutical Co., Ltd., priority 2010, dated 2015)
